Test [1] concerns induction of luciferase expression by p21 from the NK4 promoter in LuNK4p21 cells. The experiment in a line: Luciferase assay in LuNK4p21 cell line (NK4 promoter-luciferase, IPTG-inducible p21). It counts as cell-based, human. The settings on record: for induction of luciferase expression by IPTG in the presence of NSAID: 20 hr treatment after 16 hrs with 50 μM IPTG. The procedure: To develop a stably transfected cell line with p21-regulated luciferase expression, the NK4 promoter-luciferase construct, described in Example 8 and termed pLuNK4, was introduced into HT1080 p21-9 cells, which carry IPTG-inducible p21, by cotransfection with pBabePuro carrying puromycin N-acetyltransferase as a selectable marker. Transfection was carried out using LIPOFECTAMTNE 2000 (Life Technologies, Inc., Gaithersburg, Md.), using a 10:1 ratio of pLuNK4 and pBabePuro. Stable transfectants were selected using 1 μg/mL puromycin for 5 days.
This assay was performed as follows. Cells were plated at a density of 40,000 cells/well in 12 well plates in 1 mL of media containing penicillin/streptomycin, glutamine and 10% fetal calf serum (FCS). After attachment, cells were treated with 50 μM IPTG or left untreated for different periods of time. Luciferase activity was then measured as described in Example 8 above. An additional aliquot was removed from the cell lysate to measure protein concentration using the Bio-Rad protein assay kit (Bradford assay). Luciferase activity for each sample was normalized to protein content and expressed as luciferase activity/μg protein.
Luciferase assays were performed substantially as described in Example 9. Luciferase activity was measured after 16 hrs of incubation with or without 50 μM IPTG, followed by an additional 20 hr treatment in the presence or in the absence of 20 mM sodium salicylate, 1 mM sulindac, or 10 mM aspirin. […] NSAID concentrations were based on the pharmacologic concentrations of these agents in the serum of patients required for their anti-inflammatory properties (Yin et al., 1998, ibid.).

For test [2], the system named is RNA expression of the endogenous p21-inducible genes in LuNK4p21 cells. The test is described as follows: RT-PCR of endogenous p21-inducible genes in LuNK4p21 cells. The format is cell-based, human. The procedure:
To determine whether NFκB-inhibiting NSAID inhibited not only the induction of transcription from the NK4 promoter but also RNA expression of the endogenous p21-inducible genes, LuNK4p21 cells were plated at 125,000 cells per well in 6-well plates and were either untreated or treated with 50 μM IPTG for 48 hrs (the period of time required for maximal stimulation of p21 -inducible genes; Chang et al., 2000, Proc. Natl. Acad. Sci. USA 97: 4291-4296), in the presence or in the absence of sulindac, at 250 μM, 500 μM or 1 mM concentrations. After this incubation, RNA was extracted from the cells using Qiagen RNeasy Mini Kit, and relative RNA levels of several p21-inducible genes were determined by reverse transcription-PCR (RT-PCR), essentially as described by Noonan et al. (1990, Proc. Natl. Acad. Sci. USA 87: 7160-7164), except that β-actin rather than β2-microglobulin was used for cDNA normalization. The PCR cycles were as follows: for the 1st cycle, 3 min for denaturation, 2 min for annealing and 2 min for extension, and the rest of cycles, 30 sec for denaturation; 30 sec for annealing; and 1 min for extension.

The test system of test [3] is mouse embryo fibroblast line C8. The test is described as follows: Apoptosis assay in serum-starved C8 cells. The format is cell-based. The procedure: (§1) To verify the induction of secreted mitogenic and anti-apoptotic factors by p21, conditioned media from IPTG-treated p21-9 cells were tested to investigate whether they would have an effect on cell growth and apoptosis. In these experiments, conditioned media were prepared by plating 10^6 p21-9 cells per 15 cm plate in the presence of DMEM/10% FCS. The next day, IPTG was added to a final concentration of 50 μM, and this media was replaced three days later with DMEM supplemented with 0.5% FCS and 50 μM IPTG. Two days later (days 3-5 of IPTG treatment), this conditioned media was collected and stored at 4° C. up to 15 days before use. Control media were prepared by adding IPTG-free DMEM/0.5% FCS to untreated cells grown to the same density as IPTG-treated cells and collecting the media two days thereafter.
The effect of this conditioned media on apoptosis was also determined. These experiments used a mouse embryo fibroblast line C8, immortalized by E1A. […] Apoptosis was analyzed by plating 3×10^5 C8 cells per 6-cm plate, and replacing the media on the following day with fresh media supplemented with 0.4% serum or with conditioned media (no fresh serum added). DNA content analysis and DAPI staining were carried out after 24 hrs and 48 hrs, and relative cell numbers were measured by methylene blue staining (Perry et al., 1992, Mutat. Res. 276: 189-197) after 48 hrs in low-serum media.

Test [4] has as its system human fibrosarcoma cell line HS 15.T. The experiment in a line: Mitogenic activity assay, 3H-thymidine incorporation. The settings on record: HS 15.T cells. It counts as cell-based. As for the experimental part: as §1
The slow-growing human fibrosarcoma cell line HS 15.T was used to detect mitogenic activity in these conditioned media. For mitogenic activity assays, both types of conditioned media, as well as fresh media and 1:1 mixtures of conditioned media and fresh media were used to test mitogenic activity. In these experiments, the conditioned media were supplemented with 1% or 2% FCS. […] Cells were then collected and their ^3H-thymidine incorporation determined as described by Mosca et al. (1992, Mol. Cell. Biol. 12: 4375-4383).
Background: Dividing cells build labelled thymidine or BrdU into new DNA.

Test [5] deals with NFκB transcriptional activity (pNFkB-Luc) in HT1080 p21-9 cells. The test is described as follows: Transient transfection assay with pNFkB-Luc in HT1080 p21-9 cells. The format is cell-based, human. Conditions: 50 μM IPTG three days; pNFkB-Luc mixed with negative control E1AΔN/C. The procedure: Plasmid clones for each promoter construct were tested for p21-regulation by a transient transfection assay. Transient transfection of HT1080 p21-9 cells was carried out by electroporation, essentially as described in the Bio-Rad protocols. For each electroporation, p21-9 cells were grown to confluence in 15 cm plates using DMEM supplemented with 10% FC2 serum and containing penicillin, streptomycin and glutamine.. The cells were then trypsinized, resuspended in Opti-MEM medium (GibcoBRL) and spun down at 1,000 rpm in an IEC HN-SII centrifuge for 10 minutes. Following centrifugation the media were aspirated and the cells were again resuspended in Opti-MEM at a concentration of 18-20 million cells per ml. […] In preliminary experiments, cell survival and attachment after electroporation was determined to be approximately 33%. […] Luciferase activity was measured using a Turner 20/20 luminometer at 52.1% sensitivity with a 5 second delay period and 10-15 second integration time.
To determine if IPTG-inducible p21 expression in HT 1080 p21-9 cells stimulates the transcriptional activity of NFκB, we have used transient transfection assays to investigate the effect of p21 induction on luciferase expression from the plasmid pNFkB-Luc, commercially available from Stratagene. […] The luciferase activity was measured and normalized to protein content in each sample.

Where [6] appears, read: sulindac 250 μM, 500 μM or 1 mM.

Molecules are shown by their SMILES.

From patent publication US20030064426A1, “Reagents and methods for identifying and modulating expression of genes regulated by CDK inhibitors” (priority 2001, published 2003) come the findings set out here.

Take `CC(C)Cc1ccc(C(C)C(=O)O)cc1` (stereo not shown) [ibuprofen]: the “induction of luciferase expression by IPTG in the presence of NSAID” value (“induction of luciferase expression” below) in test [1] (25 μM) is on record as “no significant difference”.

As to `O=C([O-])c1ccccc1O.[Na+]` [salicylate, sodium salicylate], the “induction of luciferase expression” value in test [1] (20 mM sodium salicylate) is given as “completely or almost completely abolished”.

In the case of `CC1=C(CC(=O)O)c2cc(F)ccc2/C1=C\c1ccc([S+](C)[O-])cc1` (stereo not shown) [sulindac], the “induction of luciferase expression” value in test [1] (1 mM sulindac) is on record as “completely or almost completely abolished”. For the same compound, in test [2] (250 and 500 μM sulindac), the “effects of IPTG on the APP gene (RT-PCR)” value is reported as “diminished”. For the same compound, in test [2] (absence of IPTG, sulindac 250 μM, 500 μM or 1 mM), the “gene expression of all the other tested genes (RT-PCR)” value was “dose-dependent increase”. In test [2] (absence of IPTG, sulindac 250 μM, 500 μM or 1 mM, 48 hrs), the “NK4 gene expression (RT-PCR)” value was “very little effect”. Further, the “ability of p21 to induce transcription for most of the tested genes” value in test [2] (moderate dose of sulindac (250 μM)) is given as “inhibits”. Further, in test [2] (only by 250 μM sulindac), the “effects of IPTG on the CTGF gene (RT-PCR)” value was “diminished”, the “effects of IPTG on the Mac2-binding protein (Mac2-BP) gene (RT-PCR)” value is given as “diminished” and the “effects of IPTG on the p66Shc gene (RT-PCR)” value is on record as “diminished”. Besides, the “NK4 RNA levels (RT-PCR)” value in test [2] (presence of 50 μM IPTG, sulindac 250 μM, 500 μM or 1 mM, 48 hrs) is reported as “dose-dependent decrease”. Further, in test [2] (presence of IPTG, highest tested dose of sulindac (1 mM)), the “gene expression of the other tested genes (RT-PCR)” value is “did not decrease”. Further, in test [2] (setting [6]), the “IPTG-induced RNA levels of prosaposin (RT-PCR)” value was “None of the tested sulindac concentrations produced a significant decrease” and the “IPTG-induced RNA levels of superoxide dismutase 2 (SOD2) (RT-PCR)” value is recorded as “None of the tested sulindac concentrations produced a significant decrease”. Besides, the “t-TGase RNA (RT-PCR), compared with NK4” value in test [2] (with and without 50 μM IPTG, sulindac 250 μM, 500 μM or 1 mM, 48 hrs) is on record as “Very similar results”.

With `CC(C)S[C@@H]1O[C@H](CO)[C@H](O)[C@H](O)[C@H]1O` [IPTG, isopropyl-β-thiogalactoside], the “increase of luciferase expression by IPTG” value in test [1] (50 μM IPTG, absence of NSAID) was 3-4 fold. The “increase in luciferase levels in IPTG-treated cells” value in test [1] (LuNK4p21 cell line, about 17 hrs) is given as “approximately 3 fold”. Also, the “effect of IPTG by itself on apoptosis” value in test [3] is listed as “no effect”. The “effect of the addition of IPTG to fresh media on 3H-thymidine incorporation” value in test [4] is “no effect”. Also, the “induction of pNFkB-Luc luciferase in the presence of IPTG” value in test [5] was “up to 15 fold”.

Regarding `CC(=O)Oc1ccccc1C(=O)O` [aspirin], the “induction of luciferase expression” value in test [1] (10 mM aspirin) is “completely or almost completely abolished”.

Regarding `COc1ccc2c(c1)c(CC(=O)O)c(C)n2C(=O)c1ccc(Cl)cc1` [indomethacin], the “induction of luciferase expression” value in test [1] (25 μM) is “no significant difference”.
